From PubChem BioAssay (NCI) come the findings set out here.

Where “and” joins values, the source holds several entries; their conditions need not be identical. Equal values may be shown once.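 Each compound was tested at five concentrations against cells in 96-well plates for 48 hours. GI50 = concentration required for 50% inhibition of growth. The concentration for full growth arrest is given as TGI.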 Bounds are passed on as bounds.

Holding throughout (assay): NCI tumour cell line growth inhibition, 48 h
The test system of assay [1] is 786-0 renal.
In assay [2] the test system is EKVX NSCLC.
For assay [3], the system named is IGROV1 ovarian.
The subject of assay [4] is MCF7 breast.
In assay [5] the test system is MOLT-4 leukemia.
Assay [6] deals with NCI-H23 lung.
Assay [7] relates to NCI-H460 lung.
Assay [8] concerns OVCAR-4 ovarian.
For assay [9], the system named is SK-MEL-28 melanoma.
In assay [10] the test system is T-47D breast.

`CCN1C(=O)N(CC)C2C1NN=c1s/c(=C\c3ccc[nH]3)c(=O)n12` (stereo unspecified): the GI50 was 614 nM in [1]; 852 nM in assay [2]; 838 nM in assay [3]; 273 nM in assay [4]; 543 nM in assay [5]; 1340 nM in assay [6]. Further, the GI50 in [7] is 360 nM; in [8], 1680 nM; in assay [10], 400 nM. In addition, the TGI in [1], in assay [2], in assay [3], in assay [4], in assay [5] and in assay [6] was > 100000 nM throughout. Also, the TGI in [7] is > 41800 nM; in [8], > 100000 nM; in assay [9] it was > 100000 nM; in [10], > 100000 nM.

With `O=[N+]([O-])c1ccc2c(Nc3ccccc3-c3ccccc3Nc3c4ccccc4nc4cc([N+](=O)[O-])ccc34)c3ccccc3nc2c1`, the TGI in assay [1] stood at 13400 nM; in [2] it was 43000 nM; in assay [3], 36100 nM; in [4], 39300 nM; in assay [5] it was 50400 nM; in [6] it was 34700 nM. Besides, the TGI in assay [7] came out at 15300 nM; in assay [8], 57200 nM; in [9] it was 59100 nM; in assay [10], 20300 nM.

Regarding `CC1(C)CC2=C(Sc3ccccc3N2)C(=O)C1C(=O)C(=O)Nc1cc(Cl)ccc1Cl` (stereo unspecified), the TGI in assay [1], in assay [2], in assay [3], in [4], in [5] and in assay [6] was > 100000 nM in each case. Moreover, the TGI in assay [7] was 28100 nM; in [8], > 100000 nM; in assay [9] it was > 100000 nM; in assay [10], > 100000 nM.

As to `C=CCn1c(=O)c2cnc(Nc3ccc(N4CCN(C)CC4)cc3)nc2n1-c1cccc(C(C)(C)O)n1`, the GI50 in assay [1] was 377 nM and 362 nM; in assay [2], 970 nM and 1360 nM; in assay [3], 184 nM and 225 nM; in assay [4] it was 323 nM; in assay [5], 348 nM and 333 nM; in [6], 218 nM and 295 nM. Moreover, the GI50 in assay [7] was 1560 nM and 996 nM; in assay [8], 373 nM and 507 nM; in [9], 4610 nM and 4370 nM; in assay [10], 2520 nM and 644 nM. For the same compound, the TGI was 9710 nM and > 10000 nM in assay [1]; 30100 nM and > 10000 nM in assay [2]; 15500 nM and > 5260 nM in assay [3]; 21400 nM and > 10000 nM in assay [4]; 18100 nM and 4260 nM in assay [5]; 1270 nM and > 4860 nM in assay [6]. The TGI in assay [7] was 14100 nM and > 10000 nM; in [8], 28700 nM and > 10000 nM; in [9], 20600 nM and > 10000 nM; in assay [10] it was > 100000 nM.

Take `C[C@@H]1COCCN1c1cc(-c2ccnn2C)c2ccnc(-c3ccn[nH]3)c2n1`: the GI50 in assay [1] is 40.6 nM and 79 nM; in [2], 205 nM and 349 nM; in assay [3], 71.5 nM and 195 nM; in assay [4] it was 15.8 nM and 42.5 nM; in assay [5], 31.9 nM and 75.1 nM; in assay [6], 30.3 nM and 75 nM. In addition, the GI50 in assay [7] was 56.1 nM and 128 nM; in assay [8], 109 nM and 181 nM; in assay [9] it was 361 nM and 777 nM; in assay [10], 159 nM and 384 nM. Further, the TGI in [1] is 483 nM; in [2], 8110 nM and > 28600 nM; in assay [4], 23800 nM and > 100000 nM; in assay [5] it was 9080 nM; in assay [8] it was 1740 nM; in [9], 4200 nM and 16800 nM. Also, the TGI in assay [10] is 790 nM and 2810 nM.

`COc1ccc(Oc2ccccc2NC(=O)CNC(=O)c2cccc3ccccc23)cc1`: the GI50 in assay [1] was 1140 nM; in assay [2], 1370 nM; in assay [3], 1570 nM; in assay [4], 259 nM; in [5], 960 nM; in [6], 1280 nM. In addition, the GI50 in assay [7] is 859 nM; in [8], 2260 nM; in assay [9] it was 2270 nM; in assay [10], 2520 nM. In addition, the TGI in assay [1], in assay [2], in [3], in assay [4], in assay [5] and in assay [6] was > 25000 nM each time. The TGI in assay [7] was > 25000 nM; in assay [8], > 25000 nM; in assay [9] it was > 25000 nM; in assay [10], 19600 nM.

For the compound `Brc1cccc(-c2cc(-c3ccc4nccnc4c3)[nH]n2)c1`, the GI50 was 1660 nM in assay [1]; 4240 nM in assay [2]; 877 nM in [3]; 413 nM in assay [4]; 1520 nM in assay [5]; 1330 nM in assay [6]. Further, the GI50 is 729 nM in assay [7], 2050 nM in assay [8], 4870 nM in assay [9] and 1240 nM in assay [10]. The TGI in assay [1] is > 250000 nM; in assay [2] it was > 250000 nM; in assay [3], > 250000 nM; in assay [4] it was > 250000 nM; in assay [5], > 145000 nM; in assay [6], > 250000 nM. Further, the TGI is > 60000 nM in assay [7], > 250000 nM in [8], > 250000 nM in assay [9] and > 250000 nM in assay [10].

Turning to `O=C(Nc1ccccc1Cl)c1cccc(NC2=C(Cl)C(=O)N(Cc3ccccc3)C2=O)c1`, the GI50 in assay [1] was 10200 nM; in assay [2], 88300 nM; in assay [3], 549 nM; in assay [4], 11600 nM; in assay [5], 2520 nM; in assay [6], 50500 nM. For the same compound, the GI50 in [7] is 26800 nM; in assay [8] it was 3630 nM; in assay [9] it was 18600 nM; in assay [10], > 100000 nM. Further, the TGI was 60500 nM in assay [1]; > 100000 nM in [2]; 2290 nM in [3]; 33400 nM in assay [4]; > 100000 nM in assay [5]; > 100000 nM in [6]. Further, the TGI was > 100000 nM in assay [7], 75800 nM in assay [8], > 100000 nM in assay [9] and > 100000 nM in assay [10].
